These results are taken from PubChem BioAssay AID1259407 (Chemical Carcinogenesis Research Information System (CCRIS), 2018).

Activity calls are given as the source filed them. The rule behind the calls is not given here.

For this data set, the system named is CCRIS mutagenicity, Ames/micronucleus/aberration tests. The experiment in a line: CCRIS mutagenicity studies.
[1] abbreviates: Test System: AMES SALMONELLA TYPHIMURIUM, Strain/Indicator: TA98, Metabolic Activation: NONE, Method: PREINCUBATION
[2] abbreviates: Test System: AMES SALMONELLA TYPHIMURIUM, Strain/Indicator: TA98, Metabolic Activation: NONE, Method: STANDARD PLATE.
Setting [3] is: Test System: AMES SALMONELLA TYPHIMURIUM, Strain/Indicator: TA100, Metabolic Activation: NONE, Method: PREINCUBATION
Setting [4] is: Test System: AMES SALMONELLA TYPHIMURIUM, Strain/Indicator: TA100, Metabolic Activation: NONE, Method: STANDARD PLATE.

With `Clc1ccccc1Cl`, the mutagenic call is “inactive; negative” (End Point: IN VITRO CHROMOSOMAL ABERRATIONS, Test System: CHO-LB CELLS, Metabolic Activation: NONE); “inactive; negative” (End Point: IN VITRO CHROMOSOMAL ABERRATIONS, Test System: CHO-LB CELLS, Metabolic Activation: RAT, LIVER, S-9, AROCLOR 1254); “inactive; negative” (Test System: AMES SALMONELLA TYPHIMURIUM, Strain/Indicator: TA98, Metabolic Activation: HAMSTER, LIVER, S-9, AROCLOR 1254, Method: PREINCUBATION); “inactive; negative” under setting [1]; “inactive; negative” under setting [2]; “inactive; negative” (Test System: AMES SALMONELLA TYPHIMURIUM, Strain/Indicator: TA98, Metabolic Activation: RAT, LIVER, S-9, AROCLOR 1254, Method: PREINCUBATION). In addition, the mutagenic call is “inactive; negative” (Test System: AMES SALMONELLA TYPHIMURIUM, Strain/Indicator: TA98, Metabolic Activation: RAT, LIVER, S-9, AROCLOR, Method: STANDARD PLATE); “inactive; negative” (Test System: AMES SALMONELLA TYPHIMURIUM, Strain/Indicator: TA100, Metabolic Activation: HAMSTER, LIVER, S-9, AROCLOR 1254, Method: PREINCUBATION); “inactive; negative” under setting [3]; “inactive; negative” under setting [4]; “inactive; negative” (Test System: AMES SALMONELLA TYPHIMURIUM, Strain/Indicator: TA100, Metabolic Activation: RAT, LIVER, S-9, AROCLOR 1254, Method: PREINCUBATION); “inactive; negative” (Test System: AMES SALMONELLA TYPHIMURIUM, Strain/Indicator: TA100, Metabolic Activation: RAT, LIVER, S-9, AROCLOR, Method: STANDARD PLATE). Besides, the mutagenic call by setting is: (Test System: AMES SALMONELLA TYPHIMURIUM, Strain/Indicator: TA1535, Metabolic Activation: HAMSTER, LIVER, S-9, AROCLOR 1254, Method: PREINCUBATION) “inactive; negative”; (Test System: AMES SALMONELLA TYPHIMURIUM, Strain/Indicator: TA1535, Metabolic Activation: NONE, Method: PREINCUBATION) “inactive; negative”; (Test System: AMES SALMONELLA TYPHIMURIUM, Strain/Indicator: TA1535, Metabolic Activation: RAT, LIVER, S-9, AROCLOR 1254, Method: PREINCUBATION) “inactive; negative”; (Test System: AMES SALMONELLA TYPHIMURIUM, Strain/Indicator: TA1537, Metabolic Activation: HAMSTER, LIVER, S-9, AROCLOR 1254, Method: PREINCUBATION) “inactive; negative”; (Test System: AMES SALMONELLA TYPHIMURIUM, Strain/Indicator: TA1537, Metabolic Activation: NONE, Method: PREINCUBATION) “inactive; negative”; (Test System: AMES SALMONELLA TYPHIMURIUM, Strain/Indicator: TA1537, Metabolic Activation: RAT, LIVER, S-9, AROCLOR 1254, Method: PREINCUBATION) “inactive; negative”. The mutagenic call (Test System: AMES SALMONELLA TYPHIMURIUM, Strain/Indicator: UTH8413, Metabolic Activation: NONE, Method: STANDARD PLATE) is “inactive; negative”; the mutagenic call (Test System: AMES SALMONELLA TYPHIMURIUM, Strain/Indicator: UTH8413, Metabolic Activation: RAT, LIVER, S-9, AROCLOR, Method: STANDARD PLATE) is “inactive; negative”; the mutagenic call (Test System: AMES SALMONELLA TYPHIMURIUM, Strain/Indicator: UTH8414, Metabolic Activation: NONE, Method: STANDARD PLATE) was “inactive; negative”; the mutagenic call (Test System: AMES SALMONELLA TYPHIMURIUM, Strain/Indicator: UTH8414, Metabolic Activation: RAT, LIVER, S-9, AROCLOR, Method: STANDARD PLATE) is “inactive; negative”.
Consider `c1cc(-c2cc3ccc(C4=NCCN4)cc3[nH]2)ccc1C1=NCCN1`, for which the mutagenic call was “inactive; negative” under setting [2]; “inactive; negative” (Test System: AMES SALMONELLA TYPHIMURIUM, Strain/Indicator: TA98, Metabolic Activation: RAT, LIVER, S-9, PHENOBARBITAL, Method: STANDARD PLATE); “inactive; negative” under setting [4]; “inactive; negative” (Test System: AMES SALMONELLA TYPHIMURIUM, Strain/Indicator: TA100, Metabolic Activation: RAT, LIVER, S-9, PHENOBARBITAL, Method: STANDARD PLATE).
As for `Nc1cc(N)c(N=Nc2ccc(S(=O)(=O)O)cc2)cc1N=Nc1ccc(-c2ccc(N=Nc3ccc(C(=O)O)c(O)c3)cc2)cc1`, where the note is “Test System: AMES SALMONELLA TYPHIMURIUM, Strain/Indicator: TA98, Metabolic Activation: HAMSTER, LIVER, S-9, Method: PREINCUBATION (PRIVAL METHOD)”, the mutagenic call was “active; positive”.
For `Cc1cc(C)c2nc3c(ccc4ccccc43)c(C)c2c1`, the mutagenic call reads like this: (Test System: AMES SALMONELLA TYPHIMURIUM, Strain/Indicator: TA97A, Metabolic Activation: NONE, Method: PREINCUBATION) “inactive; negative”; under setting [1], “active; positive”; under setting [3], “active; positive”; (Test System: AMES SALMONELLA TYPHIMURIUM, Strain/Indicator: TA102, Metabolic Activation: NONE, Method: PREINCUBATION) “inactive; negative”.
Take `O=C(O)CCSCCC(=O)O`: the mutagenic call was “inactive; negative” (Test System: Ames Salmonella typhimurium, Strain/Indicator: TA98, Metabolic Activation: None, Method: Preincubation); “inactive; negative” (Test System: Ames Salmonella typhimurium, Strain/Indicator: TA98, Metabolic Activation: Rat, Liver, S-9, Phenobarbital and 5,6-benzoflavone, Method: Preincubation); “inactive; negative” (Test System: Ames Salmonella typhimurium, Strain/Indicator: TA100, Metabolic Activation: None, Method: Preincubation); “inactive; negative” (Test System: Ames Salmonella typhimurium, Strain/Indicator: TA100, Metabolic Activation: Rat, Liver, S-9, Phenobarbital and 5,6-benzoflavone, Method: Preincubation); “inactive; negative” (Test System: Ames Salmonella typhimurium, Strain/Indicator: TA1535, Metabolic Activation: None, Method: Preincubation); “inactive; negative” (Test System: Ames Salmonella typhimurium, Strain/Indicator: TA1535, Metabolic Activation: Rat, Liver, S-9, Phenobarbital and 5,6-benzoflavone, Method: Preincubation). The mutagenic call is “inactive; negative” (Test System: Ames Salmonella typhimurium, Strain/Indicator: TA1537, Metabolic Activation: None, Method: Preincubation); “inactive; negative” (Test System: Ames Salmonella typhimurium, Strain/Indicator: TA1537, Metabolic Activation: Rat, Liver, S-9, Phenobarbital and 5,6-benzoflavone, Method: Preincubation); “inactive; negative” (Test System: E. coli, Strain/Indicator: WP2uvrA/pKM101, Metabolic Activation: None, Method: Preincubation); “inactive; negative” (Test System: E. coli, Strain/Indicator: WP2uvrA/pKM101, Metabolic Activation: Rat, Liver, S-9, Phenobarbital and 5,6-benzoflavone, Method: Preincubation).
For the compound `CCOc1ccc(N)cc1N`, the mutagenic call runs as follows: (Test System: AMES SALMONELLA TYPHIMURIUM, Strain/Indicator: TA97, Metabolic Activation: RAT, LIVER, S-9, AROCLOR 1254 (4 OR 10%), Method: STANDARD PLATE) “active; positive”; (Test System: AMES SALMONELLA TYPHIMURIUM, Strain/Indicator: TA1537, Metabolic Activation: RAT, LIVER, S-9, AROCLOR 1254 (4 OR 10%), Method: STANDARD PLATE) “active; positive”; (Test System: AMES SALMONELLA TYPHIMURIUM, Strain/Indicator: TA1538, Metabolic Activation: RAT, LIVER, S-9, AROCLOR 1254 (4 OR 10%), Method: STANDARD PLATE) “active; positive”.
With `CCCOC(=O)NO`, for the setting “Test System: E. COLI, Strain/Indicator: WP2 UVRA, Metabolic Activation: NONE, Method: FLUCTUATION TEST”, the mutagenic call was “active; positive”.
Consider `O=[N+]([O-])c1ccc2c3c1ccc1cccc(c13)[C@@H]1O[C@H]21`, for which the mutagenic call reads like this: (Test System: AMES SALMONELLA TYPHIMURIUM, Strain/Indicator: TA98(1,8-DNP6), Metabolic Activation: RAT, LIVER, S-9, PHENOBARBITAL AND 5,6-BENZOFLAVONE, Method: PREINCUBATION) “active; positive”; (Test System: AMES SALMONELLA TYPHIMURIUM, Strain/Indicator: TA98(NR), Metabolic Activation: NONE, Method: PREINCUBATION) “active; positive”; under setting [1], “active; positive”; (Test System: AMES SALMONELLA TYPHIMURIUM, Strain/Indicator: TA98, Metabolic Activation: RAT, LIVER, S-9, PHENOBARBITAL AND 5,6-BENZOFLAVONE, Method: PREINCUBATION) “active; positive”; under setting [3], “active; positive”; (Test System: AMES SALMONELLA TYPHIMURIUM, Strain/Indicator: TA100, Metabolic Activation: RAT, LIVER, S-9, PHENOBARBITAL AND 5,6-BENZOFLAVONE, Method: PREINCUBATION) “active; positive”. The mutagenic call runs as follows: (Test System: CHINESE HAMSTER OVARY, Strain/Indicator: CHO (HGPRT)/6-THIOGUANINE, Metabolic Activation: NONE, Method: STANDARD PLATE) “active; positive”; (Test System: CHINESE HAMSTER OVARY, Strain/Indicator: CHO (HGPRT)/6-THIOGUANINE, Metabolic Activation: RAT, LIVER, S-9, AROCLOR 1254, Method: STANDARD PLATE) “active; positive”; (Test System: UDS RODENT HEPATOCYTES, Strain/Indicator: THY INCORP, Metabolic Activation: NONE, Method: AUTORADIOGRAPHY) “active; positive”.
